Measured values from patent US20230011269A1, “PHARMACEUTICAL COMPOSITION COMPRISING A POTENT INHIBITOR OF URAT1” (Ardea Biosciences, Inc., priority 2015, published 2023).
Read-outs that look alike come from different tables or passages of the source.

Test: Phase 1 single dose study, immediate release formulations: plasma pharmacokinetics
Format: in vivo, human
Details: for AUC(0-t): read-out: AUC0-24
Text: A phase 1, randomized, double-blind, placebo-controlled study in healthy adult male volunteers evaluated single rising doses and the preliminary food effect for 2-((3-(4-cyanonaphthalen-1-yl)pyridine-4-yl)thio)-2-methylpropanoic acid at 6 dose groups with 8 subjects per group. […] Subjects in each dose group were randomized to receive a single dose of either 2-((3-(4-cyanonaphthalen-1-yl)pyridine-4-yl)thio)-2-methylpropanoic acid (6 subjects) or placebo (2 subjects). 2-((3-(4-cyanonaphthalen-1-yl)pyridine-4-yl)thio)-2-methylpropanoic acid was supplied as 1 mg oral solution, 2 mg oral solution, 5 mg tablets, or 20 mg tablets (depending on dose level).
Segment A evaluated single rising doses of 2 mg, 5 mg, 20 mg and 40 mg and the preliminary food effect of 2-((3-(4-cyanonaphthalen-1-yl)pyridine-4-yl)thio)-2-methylpropanoic acid at the 5 mg and 20 mg doses followed by multiple ascending doses of 1 mg, 5 mg and 10 mg qd in Segment B.
The oral solution was prepared by the clinical pharmacist in bulk within 24 hours of administration. The oral solution of 2-((3-(4-cyanonaphthalen-1-yl)pyridine-4-yl)thio)-2-methylpropanoic acid (0.033 mg/mL concentration) was prepared as a mixture of the appropriate amount of 2-((3-(4-cyanonaphthalen-1-yl)pyridine-4-yl)thio)-2-methylpropanoic acid powder, anhydrous dibasic sodium phosphate, and sterile water for irrigation; placebo oral solution was prepared as a vehicle using anhydrous dibasic sodium phosphate and sterile water for irrigation. […] Plasma samples were collected at the following time-points in relation to dosing on Day 1: pre-dose (within 30 minutes before dosing) and at 0.25, 0.5, 0.75, 1, 1.5, 2, 2.5, 3, 4, 5, 6, 8, 10, 12, 24, 30, 36, 48, 54, 60, and 72 hours post-dose, and were analysed for 2-((3-(4-cyanonaphthalen-1-yl)pyridine-4-yl)thio)-2-methylpropanoic acid content.

[1] = 2 mg single dose, Fasted, oral solution, Group 5, N = 6, Geomean
[2] = 5 mg single dose, Fasted, 1 × 5 mg tablet, Group 4, N = 6, Geomean
[3] = 5 mg single dose, Fed, 1 × 5 mg tablet, Group 6, N = 6, Geomean
[4] = 20 mg single dose, Fasted, 1 × 20 mg tablet, Group 1, N = 6, Geomean
[5] = 20 mg single dose, Fed, 1 × 20 mg tablet, Group 3, N = 6, Geomean
[6] = 40 mg single dose, Fasted, 2 × 20 mg tablet, Group 2, N = 6, Geomean

Q: What does the source list for CC(C)(Sc1ccncc1-c1ccc(C#N)c2ccccc12)C(=O)O [2-((3-(4-cyanonaphthalen-1-yl)pyridine-4-yl)thio)-2-methylpropanoic acid]?
A: AUC∞ [1]: 45 ng·h/mL; Cmax [1]: 36.4 ng/mL; t1/2 [1]: 12.1 h; Tmax (2 mg single dose, Fasted, oral solution, Group 5, N = 6, median): 0.500 h; AUC∞ [2]: 121 ng·h/mL; Cmax [2]: 72.9 ng/mL; t1/2 [2]: 14.2 h; AUC∞ [3]: 92.8 ng·h/mL; Cmax [3]: 45.7 ng/mL; t1/2 [3]: 12.7 h; Tmax (5 mg single dose, Fed, 1 × 5 mg tablet, Group 6, N = 6, median): 1.25 h; Cmax (5 mg/Fasted, immediate release, read-out: Cmax): 72.9 ng/mL; Cmax [4]: 384 ng/mL; t1/2 [4]: 10.9 h; Tmax (20 mg single dose, Fasted, 1 × 20 mg tablet, Group 1, N = 6, median): 0.500 h; AUC∞ [5]: 415 ng·h/mL; Cmax [5]: 181 ng/mL; t1/2 [5]: 13.8 h; Tmax (20 mg single dose, Fed, 1 × 20 mg tablet, Group 3, N = 6, median): 1.25 h; AUC∞ [6]: 1270 ng·h/mL; t1/2 [6]: 9.51 h; Tmax (40 mg single dose, Fasted, 2 × 20 mg tablet, Group 2, N = 6, median): 0.750 h; AUC(0-t) (male, human, plasma, oral, 2 mg, 2 mg/Fasted, immediate release): 38.8 ng·h/mL; AUC(0-t) (male, human, plasma, oral, 5 mg, 5 mg single dose, Fasted, 1 × 5 mg tablet, Group 4, N = 6, Geomean): 102 ng·h/mL; Tmax (male, human, plasma, oral, 5 mg, 5 mg single dose, Fasted, 1 × 5 mg tablet, Group 4, N = 6, median, read-out: Tmax): 0.625 h; AUC(0-t) (male, human, plasma, oral, 5 mg, 5 mg single dose, Fed, 1 × 5 mg tablet, Group 6, N = 6, Geomean): 75.2 ng·h/mL; AUC(0-t) (male, human, plasma, oral, 5 mg, 5 mg/Fasted, immediate release): 102 ng·h/mL; AUC(0-t) (male, human, plasma, oral, 20 mg, 20 mg single dose, Fasted, 1 × 20 mg tablet, Group 1, N = 6, Geomean): 463 ng·h/mL; AUC(0-t) (male, human, plasma, oral, 20 mg, 20 mg single dose, Fed, 1 × 20 mg tablet, Group 3, N = 6, Geomean): 350 ng·h/mL; AUC(0-t) (male, human, plasma, oral, 20 mg, 20 mg/Fasted, immediate release): 463 ng·h/mL; AUC(0-t) (male, human, plasma, oral, 40 mg, 40 mg single dose, Fasted, 2 × 20 mg tablet, Group 2, N = 6, Geomean): 1070 ng·h/mL; AUC(0-t) (male, human, plasma, oral, 40 mg, 40 mg/Fasted, immediate release): 1070 ng·h/mL; AUC(0-inf) (male, human, plasma, oral, 20 mg single dose, Fasted, 1 × 20 mg tablet, Group 1, N = 6, Geomean): 540 ng·h/mL; Cmax (male, human, plasma, oral, 40 mg single dose, Fasted, 2 × 20 mg tablet, Group 2, N = 6, Geomean, read-out: Cmax): 760 ng/mL; AUC(0-t) (male, human, plasma, po, 2 mg, 2 mg single dose, Fasted, oral solution, Group 5, N = 6, Geomean): 38.8 ng·h/mL; Tmax (male, human, plasma, po, 5 mg, immediate release tablet, oral, fasted, human, read-out: Tmax (called mean in b5, median)): 0.6 h; Tmax (male, human, plasma, po, 5 mg, immediate release tablet, oral, fasted, human, read-out: time at which the peak plasma concentration is observed (Tmax), range): 0.25 to 1.5 h; Cmax (male, human, plasma, po, 5 mg, read-out: geometric mean maximum plasma concentration (Cmax)): ~73 ng/mL
